According to patent US20260166045A1, “COMBINATION THERAPY COMPRISING GSPT1-DIRECTED MOLECULAR GLUE DEGRADERS AND PI3K/AKT/mTOR PATHWAY INHIBITORS” (Monte Rosa Therapeutics, Inc., priority 2022, published 2026):
“And” between values parts separate entries of the source, which are not always exact repeats. Equal entries are not always repeated.

Experiments:
[1] = test system: MCF7 cell line; assay: CellTiter-Glo 2.0 cell viability, 7x7 combination dose response matrix, synergy scoring; format: cell-based
[2] = test system: ABC-1 cell line; assay: as above; format: cell-based
[3] = test system: EBC-1 cell line; assay: as above; format: cell-based
[4] = test system: CAL51 mutant cell line; assay: as above; format: cell-based
[5] = test system: CAL51 xenografts; assay: CAL51 cell-derived xenograft (CDX) in vivo combination study; design: species or system SCID Beige mice; settings: compound 1-1 3 mg/kg; for antitumor effect vs vehicle (tumor volume): day 21, ANOVA with post hoc Tukey's test; for antitumor effect vs vehicle (tumor volume) / Δ TV ratio to vehicle group (A/C, B/C, (AB)/C): p.o. qd; for Δ TV ratio to vehicle group (A/C, B/C, (AB)/C): day 21, Clarke method; for Δ TV (delta tumor volume): p.o. qd for 21 days, average of four tumors
Description: Compound 1-1 was formulated every day freshly as a solution in 5% DMSO/95% (30% w/v HPβCD in water). This formulation was also used as vehicle control. Everolimus was formulated as a suspension in 1% MC (400 cps), which was prepared every 3 days.
Body weights were measured at the same time.
Compound 1-1 was formulated every day freshly as a solution in 5% DMSO/95% (30% w/v HPβCD in water). This formulation was also used as vehicle control. Alpelisib was formulated as a solution in 20% captisol+80% water (pH adjusted to 4), which was prepared every week.

[6] = MCF7, combined with Alpelisib 41-10000 nM, first compound 4.1-1000 nM
[7] = MCF7, combined with Capivasertib 41-10000 nM, first compound 4.1-1000 nM
[8] = MCF7, combined with Everolimus 41-10000 nM, first compound 4.1-1000 nM
[9] = MCF7, combined with GNE-477 41-10000 nM, first compound 4.1-1000 nM
[10] = MCF7, combined with KU-0063794 41-10000 nM, first compound 4.1-1000 nM
[11] = MCF7, combined with M2698 41-10000 nM, first compound 4.1-1000 nM
[12] = ABC-1, combined with GNE-477 21-10000 nM, first compound 1.05-500 nM
[13] = ABC-1, combined with KU-0063794 21-10000 nM, first compound 1.05-500 nM
[14] = ABC-1, combined with M2698 21-10000 nM, first compound 1.05-500 nM
[15] = EBC-1, combined with GNE-477 21-10000 nM, first compound 1.05-500 nM
[16] = EBC-1, combined with KU-0063794 21-10000 nM, first compound 1.05-500 nM
[17] = EBC-1, combined with M2698 21-10000 nM, first compound 1.05-500 nM
[18] = combined with Alpelisib 41-10000 nM, first compound 4.1-1000 nM
[19] = combined with Capivasertib 41-10000 nM, first compound 4.1-1000 nM
[20] = combined with Everolimus 4.1-1000 nM, first compound 4.1-1000 nM
[21] = combined with GNE-477 41-10000 nM, first compound 4.1-1000 nM
[22] = combined with KU-0063794 41-10000 nM, first compound 4.1-1000 nM
[23] = combined with M2698 41-10000 nM, first compound 4.1-1000 nM
[24] = MCF7, combined with Alpelisib 41-10000 nM, first compound 0.41-33.33 nM
[25] = MCF7, combined with Capivasertib 41-10000 nM, first compound 0.41-100 nM
[26] = MCF7, combined with Everolimus 41-10000 nM, first compound 0.41-100 nM
[27] = MCF7, combined with GNE-477 41-10000 nM, first compound 0.41-100 nM
[28] = MCF7, combined with HS173 41-10000 nM, first compound 0.41-100 nM
[29] = MCF7, combined with KU-0063794 41-10000 nM, first compound 0.41-100 nM
[30] = MCF7, combined with M2698 41-10000 nM, first compound 0.41-100 nM
[31] = MCF7, combined with Serabelisib 41-10000 nM, first compound 0.41-100 nM
[32] = ABC-1, combined with Alpelisib 21-10000 nM, first compound 0.21-100 nM
[33] = ABC-1, combined with Capivasertib 21-10000 nM, first compound 0.21-100 nM
[34] = ABC-1, combined with Everolimus 2.1-1000 nM, first compound 0.21-100 nM
[35] = ABC-1, combined with GNE-477 21-10000 nM, first compound 0.21-100 nM
[36] = ABC-1, combined with KU-0063794 21-10000 nM, first compound 0.21-100 nM
[37] = ABC-1, combined with M2698 21-10000 nM, first compound 0.21-100 nM
[38] = EBC-1, combined with Alpelisib 21-10000 nM, first compound 0.21-100 nM
[39] = EBC-1, combined with Capivasertib 21-10000 nM, first compound 0.21-100 nM
[40] = EBC-1, combined with Everolimus 2.1-1000 nM, first compound 0.21-100 nM
[41] = EBC-1, combined with GNE-477 21-10000 nM, first compound 0.21-100 nM
[42] = EBC-1, combined with KU-0063794 21-10000 nM, first compound 0.21-100 nM
[43] = EBC-1, combined with M2698 21-10000 nM, first compound 0.21-100 nM
[44] = combined with Alpelisib 41-10000 nM, first compound 0.41-100 nM
[45] = combined with Capivasertib 41-10000 nM, first compound 0.41-100 nM
[46] = combined with Everolimus 4.1-1000 nM, first compound 0.41-100 nM
[47] = combined with GNE-477 41-10000 nM, first compound 0.41-100 nM
[48] = combined with KU-0063794 41-10000 nM, first compound 0.41-100 nM
[49] = combined with M2698 41-10000 nM, first compound 0.41-100 nM

## O=C1CCC(N2Cc3ccc(COC(=O)Nc4cc(OC(F)(F)F)ccc4F)cc3C2=O)C(=O)N1 (stereo not shown) [Compound 1-1, [2-(2,6-dioxopiperidin-3-yl)-3-oxo-2,3-dihydro-1H-isoindol-5-yl]methyl N-[2-fluoro-5-(trifluoromethoxy)phenyl]carbamate]
[1]; [6]
  Mean Bliss synergy score: 1.44
  Mean Loewe synergy score: 6.88
[1]; [7]
  Mean Bliss synergy score: 1.60
  Mean Loewe synergy score: 11.02
[1]; [8]
  Mean Bliss synergy score: 6.39
  Mean Loewe synergy score: 17.49
[1]; [9]
  Mean Bliss synergy score: 8.82
  Mean Loewe synergy score: 12.53
[1]; [10]
  Mean Bliss synergy score: 9.78
  Mean Loewe synergy score: 14.51
[1]; [11]
  Mean Bliss synergy score: 8.47
  Mean Loewe synergy score: 15.52
[2]; [12]
  Mean Bliss synergy score: 17.46
  Mean Loewe synergy score: 13.06
[2]; [13]
  Mean Bliss synergy score: 23.16
  Mean Loewe synergy score: 12.88
[2]; [14]
  Mean Bliss synergy score: 17.47
  Mean Loewe synergy score: 14.22
[3]; [15]
  Mean Bliss synergy score: 12.03
  Mean Loewe synergy score: 1.96
[3]; [16]
  Mean Bliss synergy score: 13.27
  Mean Loewe synergy score: −6.72
[3]; [17]
  Mean Bliss synergy score: 10.48
  Mean Loewe synergy score: 8.11
[3]; combined with GNE-477 (21 nM to 10 uM), EBC-1 cell line, mean across dose response matrix, 72 hrs
  Mean Bliss synergy score: 12.03
[4]; [18]
  Mean Bliss synergy score: 4.76
  Mean Loewe synergy score: 0.35
[4]; [19]
  Mean Bliss synergy score: −0.44
  Mean Loewe synergy score: −3.66
[4]; [20]
  Mean Bliss synergy score: −3.14
  Mean Loewe synergy score: 4.91
[4]; [21]
  Mean Bliss synergy score: 2.54
  Mean Loewe synergy score: −2.04
[4]; [22]
  Mean Bliss synergy score: 2.83
  Mean Loewe synergy score: −1.46
[4]; [23]
  Mean Bliss synergy score: −2.37
  Mean Loewe synergy score: −2.73
[5]; alpelisib 20 mg/kg
  antitumor effect vs vehicle (tumor volume): neither alpelisib nor compound 1-1 produced a statistically significant antitumor effect
  Δ TV ratio to vehicle group (A/C, B/C, (AB)/C): 0.38
[5]; everolimus 2 mg/kg
  antitumor effect vs vehicle (tumor volume): statistically significant antitumor effect
  Δ TV ratio to vehicle group (A/C, B/C, (AB)/C): 0.38
[5]; day 21, alpelisib 20 mg/kg, combination 20 + 3 mg/kg
  Δ TV (delta tumor volume): 215 mm3
[5]; day 21, everolimus 2 mg/kg, combination 2 + 3 mg/kg
  Δ TV (delta tumor volume): 215 mm3

## Cc1ccc(NC(=O)OCc2ccc3c(c2)C(=O)N(C2CCC(=O)NC2=O)C3)cc1Cl (stereo not shown) [Compound 1-6, [2-(2,6-dioxopiperidin-3-yl)-3-oxo-2,3-dihydro-1H-isoindol-5-yl]methyl N-(3-chloro-4-methylphenyl)carbamate]
[1]; [24]
  Mean Bliss synergy score: 3.23
  Mean Loewe synergy score: 9.38
[1]; MCF7, combined with Alpelisib 41-10000 nM, first compound 0.41-100 nM
  Mean Loewe synergy score: 10.18 and 8.52
[1]; [25]
  Mean Bliss synergy score: 14.01 and 11.86
  Mean Loewe synergy score: 12.75 and 11.61
[1]; [26]
  Mean Bliss synergy score: 10.05
  Mean Loewe synergy score: 17.80
[1]; [27]
  Mean Bliss synergy score: 0.14
  Mean Loewe synergy score: 6.12
[1]; [28]
  Mean Bliss synergy score: 0.74
  Mean Loewe synergy score: 3.72
[1]; [29]
  Mean Bliss synergy score: 5.02
  Mean Loewe synergy score: 9.44
[1]; [30]
  Mean Bliss synergy score: 2.92 and 3.60
  Mean Loewe synergy score: 10.25 and 9.07
[1]; [31]
  Mean Bliss synergy score: 4.69
  Mean Loewe synergy score: 4.49
[1]; combined with Capivasertib, MCF7 cell line (printed in Example 5, lung cancer cell lines), mean across dose response matrix, 72 hrs
  Mean Loewe synergy score: 16.02
[1]; combined with KU-0063794 (41 nM to 10 uM), MCF7 cell line, mean across dose response matrix, 72 hrs
  Mean Loewe synergy score: 9.44
[2]; [32]
  Mean Bliss synergy score: 20.25
  Mean Loewe synergy score: 11.94
[2]; [33]
  Mean Bliss synergy score: 33.20
  Mean Loewe synergy score: 16.0
[2]; [34]
  Mean Bliss synergy score: 26.31
  Mean Loewe synergy score: 19.39
[2]; [35]
  Mean Bliss synergy score: 20.34
  Mean Loewe synergy score: 7.13
[2]; [36]
  Mean Bliss synergy score: 19.44
  Mean Loewe synergy score: 7.24
[2]; [37]
  Mean Bliss synergy score: 17.02
  Mean Loewe synergy score: 8.75
[2]; combined with Everolimus (2.1 nM to 1 uM), ABC-1 cell line, mean across dose response matrix, 72 hrs
  Mean Bliss synergy score: 26.31
[3]; [38]
  Mean Bliss synergy score: 17.01
  Mean Loewe synergy score: 3.84
[3]; [39]
  Mean Bliss synergy score: 16.12
  Mean Loewe synergy score: 6.11
[3]; [40]
  Mean Bliss synergy score: 7.12
  Mean Loewe synergy score: 8.08
[3]; [41]
  Mean Bliss synergy score: 10.24
  Mean Loewe synergy score: 2.07
[3]; [42]
  Mean Bliss synergy score: 8.70
  Mean Loewe synergy score: 4.67
[3]; [43]
  Mean Bliss synergy score: 8.18
  Mean Loewe synergy score: 8.00
[3]; combined with Everolimus (2.1 nM to 1 uM), EBC-1 cell line, mean across dose response matrix, 72 hrs
  Mean Loewe synergy score: 8.08
[4]; [44]
  Mean Bliss synergy score: −0.63
  Mean Loewe synergy score: −1.04
[4]; [45]
  Mean Bliss synergy score: 0.95
  Mean Loewe synergy score: −0.06
[4]; [46]
  Mean Bliss synergy score: −1.53
  Mean Loewe synergy score: −0.66
[4]; [47]
  Mean Bliss synergy score: −1.35
  Mean Loewe synergy score: −2.34
[4]; [48]
  Mean Bliss synergy score: −1.01
  Mean Loewe synergy score: −0.85
[4]; [49]
  Mean Bliss synergy score: 0.82
  Mean Loewe synergy score: −0.62
